Usually Ki stands for a measure of affinity in units of concentration, obtained from inhibition or displacement. Read a low Ki as higher affinity.

Experiment [1] has as its target T1, Zea mays EPSPS variant Zm-H6 (868-H6) with R61Y (H6-R61Y) (Zea mays, UniProt O24566, A1R/A3W/A415G/A71Q/D401G/E301S/E390G/G101A/I207L/K83R/L97C/R60Y/T278A/T360S/T440Q/V437R).
T1 construct: 868-H6 plus R61Y; E. coli BL21(DE3), Ni-NTA purified
T1 sequence (O24566 with tags, fused parts or gaps A1R/A3W/R60Y/A71Q/K83R/L97C/G101A/I207L/T278A/E301S/T360S/E390G/D401G/A415G/V437R/T440Q): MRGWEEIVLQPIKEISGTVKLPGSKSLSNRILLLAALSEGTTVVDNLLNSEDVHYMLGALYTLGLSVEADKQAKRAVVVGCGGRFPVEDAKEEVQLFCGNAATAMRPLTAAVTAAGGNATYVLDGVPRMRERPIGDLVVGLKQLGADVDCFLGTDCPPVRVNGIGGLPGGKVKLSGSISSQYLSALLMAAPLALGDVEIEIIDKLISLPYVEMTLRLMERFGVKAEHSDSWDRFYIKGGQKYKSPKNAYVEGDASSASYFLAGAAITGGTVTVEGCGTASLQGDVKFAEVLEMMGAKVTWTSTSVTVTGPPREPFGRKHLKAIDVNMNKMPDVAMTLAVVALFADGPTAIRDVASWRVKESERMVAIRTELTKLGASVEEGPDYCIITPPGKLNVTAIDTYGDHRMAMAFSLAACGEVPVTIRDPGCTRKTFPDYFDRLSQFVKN
Put plainly: Rapid two-rate method for (kcat/KM)*KI, H6-R61Y. The settings on record: [E] 0.07 uM, [Gly] 1000 uM. The experiment is classed as biochemical. From the text: There are several practical considerations for accurately estimating (kcat/KM)*KI with the rapid method. […] 2) The inhibitor concentration must be adjusted so as to obtain a degree of inhibition that minimally amplifies the error in the term v0-vi in Equation 3. If inhibition is too little, v0-vi will be small, and the error in the multiplier vi×v0/(v0-vi) will be large. […] 3) Substrate concentration should be set at the approximate KM of the parental variant(s), subject to the sensitivity of the assay. High substrate concentration obscures sensitivity to the inhibitor and reduces stringency for capturing improvements in KM. Depending on the necessity for speed, there exists opportunity for customizing enzyme and inhibitor concentrations. […] The rapid method was repeated for those and obtained data that correlated better with data obtained by substrate saturation analysis. For screening purposes however, that correlation step is not necessary. Conditions can be set so that variants with a pre-determined minimal fitness level are accurately quantified.
In Table 15, parameters above the heavy line for the rapid method were obtained under standard conditions. For variants shown below the heavy line, the rapid analysis was repeated with enzyme or glyphosate concentrations adjusted as needed to generate sufficient signal within the limits for linear initial rates.

The target of experiment [2] is T2, Zea mays EPSPS variant Zm-T103A (Zea mays, UniProt O24566, T102A).
T2 construct: native maize plus T103A; E. coli BL21(DE3), Ni-NTA purified
T2 sequence (O24566 with tags, fused parts or gaps T102A): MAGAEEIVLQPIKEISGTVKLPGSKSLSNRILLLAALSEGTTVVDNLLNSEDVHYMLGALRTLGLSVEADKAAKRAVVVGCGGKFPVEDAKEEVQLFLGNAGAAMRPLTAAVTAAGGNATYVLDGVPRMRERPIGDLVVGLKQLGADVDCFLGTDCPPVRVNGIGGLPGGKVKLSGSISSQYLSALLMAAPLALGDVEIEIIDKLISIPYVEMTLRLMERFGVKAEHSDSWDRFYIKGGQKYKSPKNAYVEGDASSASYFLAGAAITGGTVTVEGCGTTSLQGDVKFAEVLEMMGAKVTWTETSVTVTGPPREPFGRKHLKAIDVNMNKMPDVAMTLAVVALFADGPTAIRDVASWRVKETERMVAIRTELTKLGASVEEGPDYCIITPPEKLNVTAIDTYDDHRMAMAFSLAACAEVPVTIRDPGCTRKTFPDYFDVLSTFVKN
Kind of experiment: Substrate saturation kinetic analysis with glyphosate, Zm-T103A. It counts as biochemical.

Experiment [3] deals with T3, Zea mays EPSPS, wild-type, SEQ ID NO:1 (Zea mays, UniProt O24566).
T3 construct: expressed in E. coli, purified
T3 sequence (O24566 entry or part of it): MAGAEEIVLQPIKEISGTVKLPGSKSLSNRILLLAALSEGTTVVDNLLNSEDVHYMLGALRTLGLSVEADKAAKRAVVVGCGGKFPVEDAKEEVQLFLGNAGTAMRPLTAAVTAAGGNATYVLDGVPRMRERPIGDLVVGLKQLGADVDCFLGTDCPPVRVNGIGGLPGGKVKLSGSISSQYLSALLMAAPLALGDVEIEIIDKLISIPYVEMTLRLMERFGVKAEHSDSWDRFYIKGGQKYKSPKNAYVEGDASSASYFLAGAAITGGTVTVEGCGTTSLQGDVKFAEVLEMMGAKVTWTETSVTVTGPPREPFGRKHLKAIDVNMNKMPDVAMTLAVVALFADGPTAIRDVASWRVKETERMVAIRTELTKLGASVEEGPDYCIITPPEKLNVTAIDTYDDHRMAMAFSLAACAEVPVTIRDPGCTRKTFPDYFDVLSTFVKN
Kind of experiment: EPSPS reaction rate with or without 10 uM glyphosate, native maize. Note: 50 µM PEP and S3P. It counts as biochemical. The settings on record: pH 7; read-out: Reaction rate with 10 μM glyph, % no glyph.

The target of a further experiment is Bacterial EPSPS (CP4) (Agrobacterium sp., UniProt Q9R4E4). Kind of experiment: Substrate saturation kinetic analysis with glyphosate, bacterial EPSPS (CP4).
Chain of Bacterial EPSPS (CP4) (Q9R4E4 whole entry): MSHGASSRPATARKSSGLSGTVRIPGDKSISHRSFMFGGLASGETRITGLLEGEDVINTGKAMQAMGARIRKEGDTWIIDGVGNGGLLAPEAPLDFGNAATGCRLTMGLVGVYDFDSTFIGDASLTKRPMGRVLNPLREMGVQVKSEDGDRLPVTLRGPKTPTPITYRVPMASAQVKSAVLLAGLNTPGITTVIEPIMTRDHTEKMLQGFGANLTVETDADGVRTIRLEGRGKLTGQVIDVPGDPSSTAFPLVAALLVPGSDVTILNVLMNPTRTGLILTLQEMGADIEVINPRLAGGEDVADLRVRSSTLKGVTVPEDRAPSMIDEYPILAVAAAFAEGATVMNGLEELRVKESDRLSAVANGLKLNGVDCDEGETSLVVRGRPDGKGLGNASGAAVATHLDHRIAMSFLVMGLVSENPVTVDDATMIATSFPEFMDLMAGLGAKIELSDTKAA
Experiment [4] concerns the target Zea mays EPSPS variant 202R (Zea mays, UniProt O24566, I201R). Put plainly: EPSPS reaction rate with or without 10 uM glyphosate, 202R. Note: 50 µM PEP and S3P. The experiment is classed as biochemical. The note with it: pH 7; read-out: Reaction rate with 10 μM glyph, % no glyph.

Chain of Zea mays EPSPS variant 202R (O24566 entry or part of it I201R): as the sequence (O24566 entry or part of it) above, with I202R counted along it
From the text for Bacterial EPSPS (CP4): There are several practical considerations for accurately estimating (kcat/KM)*KI with the rapid method. […] If inhibition is too little, v0-vi will be small, and the error in the multiplier vi×v0/(v0-vi) will be large. […] High substrate concentration obscures sensitivity to the inhibitor and reduces stringency for capturing improvements in KM.

As to `O=C(O)CNCP(=O)(O)O` [glyphosate, N-phosphonomethylglycine], the “(kcat/KM)*KI” value turned out to be 1889 in experiment [1]; 321 in experiment [2] (substrate saturation, Zm-T103A); 108900 on Bacterial EPSPS (CP4) (substrate saturation, Bacterial EPSPS / CP4). Also, the Ki in experiment [2] was found to be 208 µM; on Bacterial EPSPS (CP4), 1410 µM. For the same molecule, the figures for the activity at 10 µM in experiment [3] and in experiment [4] were 9.49% and 7.48%, respectively.
